Assay results: publication PMC6122585 (Bioconjugate chemistry, 2017)

Key:
[1] = system: SW480 ITGB6 high cells; assay: Long-term cytotoxicity, SW480 ITGB6 high; format: cell-based, human; details: SW480 versus SW480 ITGB6 high, Figure S7
[2] = system: αvβ5; details: cited from earlier work
[3] = system: αvβ3; details: cited from earlier work

| Substance | effect of ITGB6 transfection on sensitivity [1] | αvβ5 integrin targeting (in words) [2] | αvβ3 integrin targeting (in words) [3] |
| --- | --- | --- | --- |
| cilengitide (RGDFV; chains of the INN, looked up) | ITGB6 transfection did not impact on the sensitivity |  |  |
| c(RGDfK) |  | target αvβ3 and αvβ5 integrins | target αvβ3 and αvβ5 integrins |
